Reference: patent publication US20210029993A1, “SPATIAL INHIBITORS, DETERRENTS AND REPELLENTS FOR MOSQUITOES AND MIDGES” (BEDOUKIAN RESEARCH, INC., priority 2005, published 2021)

Legend:
Type in all cases: in vivo
[1] = tested on: female mosquitoes (Aedes aegypti); assay: Mosquitoes flying test (Plexiglas module, mosquitoes flying within the apparatus); details: for Flying Relative To Control: control = 1, higher = more inhibitor activity; for spatial inhibitor activity for mosquitoes (flying tests, FIGS. 2 and 4), in words: flying relative to control
Protocol: (§1) The test was conducted at 0900-2100 hours in a walk-in incubator (26° C., 63-80% RH) illuminated by fluorescent lights. Mosquitoes were tested in a two-piece Plexiglas module designed to assess their response to feeding deterrents. The bottom piece of the module was 40×7×4-cm hollow platform supporting six circular wells (diameter=3.8 cm, depth=6 mm). Water (40° C.) flowed through the central cavity of the platform at a rate of 215 ml/min. The top piece of the module consisted of six 4.5×4.0×5.0 cm chambers, the floors of which were fitted with a sliding door positioned over a circular opening 3.5 cm in diameter. Mosquitoes were introduced through an aperture 1 cm in diameter on the front wall of the chambers. For each test, five female mosquitoes (Aedes aegypti) were aspirated into each of five chambers of the top module piece and the apertures were plugged with corks wrapped in plastic film. The wells on the bottom piece of the module were filled with 7 ml of 10% sucrose solution containing ATP (2.9 mg/ml). To each well, 75 μl of green dye (McCormick Food, Hunt Valley, Md.) were added so that those mosquitoes imbibing the sugar solution could be identified when crushed at the end of the tests. Each membrane received 50 ul of acetone or experimental compound solution, applied to 9.6 cm^2 circular area on 0.1 mm-thick membranes made of nylon mesh in a silicone matrix. The membranes were then placed over each well in contact with the sugar solution.
(§2) The circular openings on the floor of each chamber of the top piece of the module were aligned with each membrane-covered well of the bottom piece. The sliding floors of the chambers were then opened allowing mosquitoes access to the membranes. The number of mosquitoes landing on the membranes, and those flying within the apparatus, were recorded each minute for five minutes. After five minutes, any mosquitoes remaining on the membranes were removed with a metal wire, and the door of the floor of each chamber was closed. The top piece of the module was then placed into a freezer for 20 minutes. In the test designed to assess feeding, mosquitoes were removed from the frozen module, crushed on white paper towels, and examined for the presence of green dye to indicate that feeding had occurred. The proportions of mosquitoes feeding per trial were analyzed using a standard generalized linear model with a logit link. Landing and flying scores are repeated measures; five reading were obtained for groups of five mosquitoes. Thus, to maintain independence among the data, the five readings were summed, and then the sums divided by 25 (the maximum score in each category) to create proportions of mosquitoes landing and flying. The proportions were then transferred using the standard variance stabilizing transformation for proportions (sin^−1 √y, where y is the proportion), and analyzed using ANOVA (Analysis of Variables)
In Table 2, weight percent (wt %) refers to the weight of the deterring/repelling/inhibiting compound, or combination of compounds, in the composition used in the tests. […] The weight ratio of the compounds in the combination of compounds is given in parentheses in the “Compound(s)” column of Table 2.

[2] = tested on: mosquitoes; assay: Spatial inhibition of mosquitoes, outdoor Mosquito Magnet Liberty Plus trap catch; details: for Percent Caught Relative To Control: control trap = 100% catch, lower = more inhibition; for percent mosquitoes caught relative to the control (relative catch): two grams of test compound on absorbent material in CO2 and r-octenol stream of trap, 2-5 days, FIG. 5
Protocol: Two grams of test compound was absorbed onto pieces of absorbent material. These pieces of absorbent material (fragrance release material from Rhopore Inc.) containing absorbed test compound were then placed in a stream of CO2 and r-octenol being released from an American Biophysics Mosquito Magnet Liberty Plus mosquito trap designed to attract mosquitoes. The test were rotated over a period of 2-5 days in such a manner that both control (trap without test compound) and test compound were tested an equal number of times in each trap employed. The number of mosquitoes caught in the traps with test compounds was compared to the number of mosquitoes caught in the trap with no test compound material present. […] Thus, a lowered percentage is indicative of the increasing ability of the test compounds to inhibit the ability of the mosquitoes sense the target. […] In Table 3, weight percent (wt %) refers to the weight of the deterring/repelling/inhibiting compound, or combination of compounds, in the composition used in the tests. In the “Percent Caught Relative to Control” column in Table 3, a lower percentage is indicative of the increasing ability of the test compounds to inhibit the ability of the mosquitoes sense the target. The weight ratio of the compounds in the combination of compounds is given in parentheses in the “Compound(s)” column of Table 3.

[3] = tested on: female mosquitoes (Aedes aegypti); assay: Mosquitoes feeding test (Plexiglas module, treated membrane over dyed sucrose/ATP solution); details: for Feeding Relative To Control: control = 1.00, lower = more repellent; for contact mosquito repellent activity (feeding tests, FIGS. 1 and 3), in words: feeding relative to control
Protocol: as §1, §2
In Table 1, weight percent (wt %) refers to the weight of the deterring/repelling/inhibiting compound, or combination of compounds, in the composition used in the tests. […] The weight ratio of the compounds in the combination of compounds is given in parentheses in the “Compound(s)” column of Table 1.

[4] = 77.5 wt % compound(s) in composition
[5] = 87.5 wt % compound(s) in composition
[6] = 92.5 wt % compound(s) in composition
[7] = 80 wt % compound(s) in composition
[8] = 95 wt % compound(s) in composition
[9] = 82.5 wt % compound(s) in composition
[10] = 85 wt % compound(s) in composition
[11] = 90 wt % compound(s) in composition

C=C(C)[C@@H]1CC=C(C)[C@@H](O)C1 (relative stereo) [trans-Carveol]
Flying Relative To Control [1, 4]: 1.55 | Percent Caught Relative To Control [2, 4]: 22% | Feeding Relative To Control [3, 4]: 0.64

(+) Limonene oxide
Flying Relative To Control [1, 5]: 0.90 | Percent Caught Relative To Control [2, 5]: 18% | Feeding Relative To Control [3, 5]: 0.78

CC(C)=CCCC(C)CC=O (stereo not shown) [Citronellal]
Flying Relative To Control [1, 6]: 1.9 | spatial inhibitor activity for mosquitoes (flying tests, FIGS. 2 and 4), in words [1]: particularly effective as spatial inhibitors for mosquitoes | Percent Caught Relative To Control [2, 6]: 11% | Feeding Relative To Control [3, 6]: 0.62 | contact mosquito repellent activity (feeding tests, FIGS. 1 and 3), in words [3]: especially effective as contact mosquito repellents

CC(=O)OCCC(C)CCC=C(C)C (stereo not shown) [Citronellyl acetate]
Flying Relative To Control [1, 7]: 1.5 | spatial inhibitor activity for mosquitoes (flying tests, FIGS. 2 and 4), in words [1]: particularly effective as spatial inhibitors for mosquitoes | Percent Caught Relative To Control [2, 7]: 26% | Feeding Relative To Control [3, 7]: 0.65

CC(C)[C@@H]1CC[C@@H](C)C(=O)C1 [Tetrahydrocarvone]
Flying Relative To Control [1, 8]: 1.65 | Percent Caught Relative To Control [2, 8]: 25% | percent mosquitoes caught relative to the control (relative catch) [2]: about 52% | Feeding Relative To Control [3, 8]: 0.70 | contact mosquito repellent activity (feeding tests, FIGS. 1 and 3), in words [3]: especially effective as contact mosquito repellents

CC(C)=CCCC(C)=CC=O [Citral]
Flying Relative To Control [1, 9]: 2.0 | spatial inhibitor activity for mosquitoes (flying tests, FIGS. 2 and 4), in words [1]: particularly effective as spatial inhibitors for mosquitoes | Percent Caught Relative To Control [2, 9]: 10% | Feeding Relative To Control [3, 9]: 0.60 | contact mosquito repellent activity (feeding tests, FIGS. 1 and 3), in words [3]: especially effective as contact mosquito repellents

Cc1ccc(C(C)(C)O)cc1
Flying Relative To Control [1, 7]: 1.0 | spatial inhibitor activity for mosquitoes (flying tests, FIGS. 2 and 4), in words [1]: particularly effective as spatial inhibitors for mosquitoes | Percent Caught Relative To Control [2, 7]: 26% | percent mosquitoes caught relative to the control (relative catch) [2]: about 34% | Feeding Relative To Control [3, 7]: 0.72 | contact mosquito repellent activity (feeding tests, FIGS. 1 and 3), in words [3]: especially effective as contact mosquito repellents

C=C(C)[C@@H]1CC=C(C)[C@H](O)C1 (relative stereo) [cis-Carveol]
Flying Relative To Control [1, 10]: 1.35 | Percent Caught Relative To Control [2, 10]: 23% | Feeding Relative To Control [3, 10]: 0.66

CC(C)=CCCC(C)CCO (stereo not shown) [Citronellol]
Flying Relative To Control [1, 5]: 1.55 | spatial inhibitor activity for mosquitoes (flying tests, FIGS. 2 and 4), in words [1]: particularly effective as spatial inhibitors for mosquitoes | Percent Caught Relative To Control [2, 5]: 12% | Feeding Relative To Control [3, 5]: 0.62

CC1=CCC(O)(C(C)C)CC1 (stereo not shown) [Terpinen-4-ol]
Flying Relative To Control [1, 11]: 1.7 | spatial inhibitor activity for mosquitoes (flying tests, FIGS. 2 and 4), in words [1]: particularly effective as spatial inhibitors for mosquitoes | Percent Caught Relative To Control [2, 11]: 20% | percent mosquitoes caught relative to the control (relative catch) [2]: about 38% | Feeding Relative To Control [3, 11]: 0.74

C=C(C)C1CCC2(C)OC2C1 (single isomer, unassigned; (-)) [(−) Limonene oxide]
Flying Relative To Control [1, 6]: 1.1 | Percent Caught Relative To Control [2, 6]: 17% | Feeding Relative To Control [3, 6]: 0.76

CC(=O)OC/C=C(\C)CCC=C(C)C [Geranyl acetate]
Flying Relative To Control [1, 10]: 1.75 | spatial inhibitor activity for mosquitoes (flying tests, FIGS. 2 and 4), in words [1]: particularly effective as spatial inhibitors for mosquitoes | Percent Caught Relative To Control [2, 10]: 30% | Feeding Relative To Control [3, 10]: 0.68 | contact mosquito repellent activity (feeding tests, FIGS. 1 and 3), in words [3]: especially effective as contact mosquito repellents

CC(=O)OC/C=C(/C)CCC=C(C)C [Neryl acetate]
Flying Relative To Control [1, 4]: 2.0 | spatial inhibitor activity for mosquitoes (flying tests, FIGS. 2 and 4), in words [1]: particularly effective as spatial inhibitors for mosquitoes | Percent Caught Relative To Control [2, 4]: 22% | Feeding Relative To Control [3, 4]: 0.76 | contact mosquito repellent activity (feeding tests, FIGS. 1 and 3), in words [3]: especially effective as contact mosquito repellents

C=C[C@@](C)(O)CCC=C(C)C [d-Linalool, reference compound]
Flying Relative To Control [1, 7]: 1.25 | Percent Caught Relative To Control [2, 7]: 6% | Feeding Relative To Control [3, 7]: 0.32

l-Carvone
Flying Relative To Control [1, 9]: 1.75 | spatial inhibitor activity for mosquitoes (flying tests, FIGS. 2 and 4), in words [1]: particularly effective as spatial inhibitors for mosquitoes | Percent Caught Relative To Control [2, 9]: 10% | Feeding Relative To Control [3, 9]: 0.62 | contact mosquito repellent activity (feeding tests, FIGS. 1 and 3), in words [3]: especially effective as contact mosquito repellents

CC1=CCC(C(C)(C)O)CC1 (stereo not drawn) [α-terpineol]
Flying Relative To Control [1, 11]: 1.15 | spatial inhibitor activity for mosquitoes (flying tests, FIGS. 2 and 4), in words [1]: particularly effective as spatial inhibitors for mosquitoes | Percent Caught Relative To Control [2, 11]: 18% | Feeding Relative To Control [3, 11]: 0.80 | contact mosquito repellent activity (feeding tests, FIGS. 1 and 3), in words [3]: especially effective as contact mosquito repellents

C=C(C)[C@H]1CC=C(C)C(=O)C1 [d-Carvone]
Flying Relative To Control [1, 4]: 1.95 | spatial inhibitor activity for mosquitoes (flying tests, FIGS. 2 and 4), in words [1]: particularly effective as spatial inhibitors for mosquitoes | Percent Caught Relative To Control [2, 4]: 12% | Feeding Relative To Control [3, 4]: 0.64 | contact mosquito repellent activity (feeding tests, FIGS. 1 and 3), in words [3]: especially effective as contact mosquito repellents

C=CC(C)(CCC=C(C)C)OC(C)=O (stereo not shown) [Linaloyl acetate]
Flying Relative To Control [1, 8]: 1.3 | spatial inhibitor activity for mosquitoes (flying tests, FIGS. 2 and 4), in words [1]: particularly effective as spatial inhibitors for mosquitoes | Percent Caught Relative To Control [2, 8]: 15% | Feeding Relative To Control [3, 8]: 0.74 | contact mosquito repellent activity (feeding tests, FIGS. 1 and 3), in words [3]: especially effective as contact mosquito repellents
